Experimental findings from patent US7371773B2, “Breast cancer resistance protein (BCRP) inhibitor” (Kabushiki Kaisha Yakult Honsha, priority 2003, dated 2008) are described below.

Values after ≈ are worked out from the molar mass of the structure shown. Structures can show the parent of a compound that is named as a salt.

Assay [1] has as its system A549/SN-38-3 cell line. Put plainly: Anticancer drug sensitivity test, A549/SN-38-3. Format: cell-based, human. The method, then:
(§1) Human non-small cell lung cancer A549 cell line was subcultured at 5% CO2 and 37° C. by use of a Ham's F-12 medium containing 10% FBS, 100 U/mL of penicillin, and 100 μg/mL of streptomycin (10% FBS/Ham's F-12). SN-38-resistant A549 cell lines were selected by subculturing the A549 cell line in a medium for two months while the concentration of SN-38 contained in the medium was increased in a stepwise manner (4 to 10 ng/mL). Subsequently, the resultant SN-38-resistant A549 cell lines were subjected to cloning by means of limiting dilution, to thereby establish six cloned SN-38-resistant A549 cell lines (A549/SN-38-1 to 6).
(§2) The A549 cell line or each of the A549/SN-38-1 to 6 was suspended in 10% FBS/Ham's F-12, and the resultant suspension was inoculated into a 96-well microplate, followed by culturing at 5% CO2 and 37° C. overnight. Thereafter, a solution of an anticancer drug in 10% FBS/Ham's F-12 (50 μL) was added to each of the wells, followed by culturing at 5% CO2 and 37° C. for 48 hours. After completion of culturing, the number of viable cells was counted by use of a viable cell counting reagent [TetraColor ONE (trade name), product of Seikagaku Corporation] according to the attached instruction manual. […] “Relative resistance value” is obtained by dividing the IC50 for an A549/SN-38 cell line by the IC50 for the A549 cell line. The greater the relative resistance value, the higher the level of acquired resistance.

Assay [2] deals with A549/SN-38-5 cell line. The assay is described as follows: Anticancer drug sensitivity test, A549/SN-38-5. It counts as cell-based, human. The method, then: as §1, §2
For assay [3], the system named is A549/SN-38-6 cell line. The assay is described as follows: Anticancer drug sensitivity test, A549/SN-38-6. Format: cell-based, human. The method, then:
as §1, §2

The subject of assay [4] is A549 cell line. Put plainly: Anticancer drug sensitivity test, A549 cell line. It counts as cell-based, human. The following applies: Homo sapiens, culturing 48 hours, read-out: IC50. The method, then: as §2
Assay [5] deals with A549/SN-38-2 cell line. The assay is described as follows: Anticancer drug sensitivity test, A549/SN-38-2. Format: cell-based, human. The method, then:
as §1, §2

Assay [6] relates to A549/SN-38-4 cell line. The assay is described as follows: Anticancer drug sensitivity test, A549/SN-38-4. Format: cell-based, human. The method, then: as §1, §2
Assay [7] relates to A549/SN-38-1 cell line. The assay is described as follows: Anticancer drug sensitivity test, A549/SN-38-1. It counts as cell-based, human. The method, then:
as §1, §2

In assay [8] the test system is A549/SN-38-4 cell line. The assay is described as follows: Overcoming anticancer drug resistance of A549/SN-38-4 cell line. Format: cell-based, human. The following applies: for EC50: Homo sapiens, A549, SN-38 resistance, concentration for 50% reduction of relative resistance value, 48 hours, read-out: Resistance overcoming effect EC50. The method, then: The effect of a diphenylacrylonitrile derivative on BCRP-mediated anticancer drug resistance was studied by use of the human lung cancer A549/SN-38-4 cell line, which had acquired anticancer drug resistance through BCRP expression. The human lung cancer A549 cell line or the A549/SN-38-4 cell line was suspended in 10% FBS/Ham's F-12, and the resultant suspension was inoculated into a 96-well microplate, followed by culturing at 5% CO2 and 37° C. overnight (2×10^3 cells/50 μL/well). Thereafter, a 10% FBS/Ham's F-12 solution (25 μL) containing a diphenylacrylonitrile derivative and SN-38 or mitoxantrone was added to each of the wells, followed by culturing at 5% CO2 and 37° C. for 48 hours. After completion of culturing, the number of viable cells was counted by use of TetraColor ONE according to the attached instruction manual. […] The greater the relative resistance value, the higher the level of acquired resistance.

Assay [9] concerns P388/BCRP cell line. Put plainly: Overcoming anticancer drug resistance in vivo (survival of tumor-implanted mice). The following applies: compound 100 mg/kg/day + CPT-11 20 mg/kg/day i.p. once a day, 10 administrations. On the set-up: species or system CDF1 mice.
The subject of assay [10] is MES-SA/Dx5 cell line. Put plainly: Effect on multidrug resistance of MES-SA/Dx5 cell line. To be noted: Homo sapiens; paclitaxel resistance, MES-SA/Dx5 (P-glycoprotein overexpression), 48 hours; read-out: Resistance overcoming effect EC50. It counts as cell-based. The method, then: Human uterine cancer MES-SA cell line or MES-SA/Dx5 cell line which had acquired multidrug resistance through overexpression of P-glycoprotein [Cancer Res. 45, 4091-4096 (1985)] was suspended in 10% FBS/DMEM, and the resultant suspension was inoculated into a 96-well microplate, followed by culturing at 5% CO2 and 37° C. overnight (3×10^3 cells/50 μL/well). Thereafter, a solution of a diphenylacrylonitrile derivative and paclitaxel in 10% FBS/DMEM (25 μL) was added to each of the wells, followed by culturing at 5% CO2 and 37° C. for 48 hours. After completion of culturing, the number of viable cells was counted by use of TetraColor ONE according to the attached instruction manual.

Turning to `O=c1[nH]cc(F)c(=O)[nH]1` [5-Fluorouracil], the IC50 (usually the concentration needed to halve the response being measured) was found to be 0.69 µg/mL (≈ 5.3 µM) in assay [1] (Homo sapiens, A549/SN-38-3, culturing 48 hours, read-out: IC50); 1.7 µg/mL (≈ 13.1 µM) in [2] (Homo sapiens, A549/SN-38-5, culturing 48 hours, read-out: IC50); 1 µg/mL (≈ 7.69 µM) in assay [3] (Homo sapiens, A549/SN-38-6, culturing 48 hours, read-out: IC50); 2.1 µg/mL (≈ 16.1 µM) in assay [4]; 1.3 µg/mL (≈ 9.99 µM) in assay [5] (Homo sapiens, A549/SN-38-2, culturing 48 hours, read-out: IC50); 0.91 µg/mL (≈ 7 µM) in assay [6] (Homo sapiens, A549/SN-38-4, culturing 48 hours, read-out: IC50). In addition, the IC50 in assay [7] (Homo sapiens, A549/SN-38-1, culturing 48 hours, read-out: IC50) was 4.3 µg/mL (≈ 33.1 µM). For the same compound, the Relative resistance value result is “(0.3)” in assay [1] (IC50 for A549/SN-38-3 divided by IC50 for A549); “(0.8)” in [2] (IC50 for A549/SN-38-5 divided by IC50 for A549); “(0.5)” in assay [3] (IC50 for A549/SN-38-6 divided by IC50 for A549); “(0.6)” in [5] (IC50 for A549/SN-38-2 divided by IC50 for A549); “(0.4)” in assay [6] (IC50 for A549/SN-38-4 divided by IC50 for A549); “(2.0)” in assay [7] (IC50 for A549/SN-38-1 divided by IC50 for A549).

Turning to `COc1ccc(/C(C#N)=C/c2ccc(O)cc2)cc1OC` [Compound 1, (Z)-2-(3,4-dimethoxyphenyl)-3-(4-hydroxyphenyl)acrylonitrile], in [8], the EC50 (in general, the concentration that produces a half-maximal response) worked out at 0.051 µg/mL (≈ 0.181 µM). For the same compound, in [9] (Table 6), the “Survival days Mean ± S.D.” value was 19.4 ± 1.1 days and the T/C – broadly, the ratio of treated to control – came to 162%. Also, the EC50 in assay [10] is above 1 µg/mL.

Consider `COc1ccc(/C(C#N)=C/c2ccc(OC(=O)N3CCC(N4CCCCC4)CC3)cc2)cc1OC` [Compound 2, 4-[(Z)-2-cyano-2-(3,4-dimethoxy-phenyl)-vinyl]-phenyl [1,4′]bipiperidinyl-1′-carboxylate], for which the EC50 in [8] is 0.41 µg/mL (≈ 0.862 µM); in assay [10], above 1 µg/mL.

For the compound `COc1ccc(/C(C#N)=C/c2ccc(OC(C)=O)cc2)cc1OC` [Compound 3, 4-[(Z)-2-cyano-2-(3,4-dimethoxy-phenyl)-vinyl]-phenyl acetate], in assay [8], the EC50 amounted to 0.02 µg/mL. In assay [9] (Table 6), the “Survival days Mean ± S.D.” value stood at 19.8 ± 0.8 days and the T/C was determined as 165%. Also, the EC50 in assay [10] is above 1 µg/mL.

For `COCCOCOc1ccc(/C=C(\C#N)c2ccc(OC)c(OC)c2)cc1` [Compound 4, (Z)-2-(3,4-dimethoxy-phenyl)-3-[4-(2-methoxy-ethoxymethoxy)-phenyl]-acrylonitrile], the EC50 was 0.079 µg/mL (≈ 0.214 µM) in assay [8] and above 1 µg/mL in [10].

On to `COc1ccc(/C(C#N)=C/c2cccc(O)c2)cc1OC` [Compound 5, (Z)-2-(3,4-dimethoxy-phenyl)-3-(3-hydroxy-phenyl)-acrylonitrile], for which, in [8], the EC50 came to 0.021 µg/mL (≈ 0.0747 µM). Further, in assay [9] (Table 6), the “Survival days Mean ± S.D.” value was 19.2 ± 1.1 days and the T/C worked out at 160%. For the same compound, the EC50 in assay [10] was above 1 µg/mL.

Take `COc1ccc(/C(C#N)=C/c2ccccc2O)cc1OC` [Compound 6, (Z)-2-(3,4-dimethoxy-phenyl)-3-(2-hydroxy-phenyl)-acrylonitrile]: the EC50 in assay [8] was 0.098 µg/mL (≈ 0.348 µM); in assay [10] it was above 1 µg/mL.

For `COc1cc(/C=C(\C#N)c2ccc(OC)c(OC)c2)ccc1O` [Compound 7, (Z)-2-(3,4-dimethoxy-phenyl)-3-(4-hydroxy-3-methoxy-phenyl)-acrylonitrile], the EC50 in assay [8] was found to be 0.025 µg/mL (≈ 0.0803 µM). Further, in [9] (Table 6), the “Survival days Mean ± S.D.” value was 20.0 ± 0.7 days and the T/C is recorded as 167%. Also, the EC50 in assay [10] was above 1 µg/mL.

`COc1ccc(/C(C#N)=C/c2ccc(O)c(O)c2)cc1OC` [Compound 8, (Z)-3-(3,4-dihydroxy-phenyl)-2-(3,4-dimethoxy-phenyl)-acrylonitrile]: the EC50 in [8] is 0.035 µg/mL (≈ 0.118 µM). Also, in [9] (Table 6), the “Survival days Mean ± S.D.” value is listed as 19.2 ± 0.8 days and the T/C was 160%. For the same compound, the EC50 in assay [10] was above 1 µg/mL.

`COc1ccc(/C(C#N)=C/c2cccc(O)c2OC)cc1OC` [Compound 9, (Z)-2-(3,4-dimethoxy-phenyl)-3-(3-hydroxy-2-methoxy-phenyl)-acrylonitrile]: the EC50 in assay [8] is 0.028 µg/mL (≈ 0.0899 µM); in assay [10], above 1 µg/mL.

Take `COc1ccc(/C(C#N)=C/c2cc(C)c(O)c(C)c2)cc1OC` [Compound 10, (Z)-2-(3,4-dimethoxy-phenyl)-3-(4-hydroxy-3,5-dimethyl-phenyl)-acrylonitrile]: the EC50 was 0.023 µg/mL (≈ 0.0743 µM) in assay [8] and above 1 µg/mL in assay [10].

Turning to `CCOc1cc(/C=C(\C#N)c2ccc(OC)c(OC)c2)ccc1O` [Compound 11, (Z)-2-(3,4-dimethoxy-phenyl)-3-(3-ethoxy-4-hydroxy-phenyl)-acrylonitrile], the EC50 in assay [8] was 0.047 µg/mL (≈ 0.144 µM); in assay [10], above 1 µg/mL. Besides, in [9] (Table 6), the “Survival days Mean ± S.D.” value came to 19.4 ± 0.5 days. For the same compound, the T/C in [9] (Table 6) is 162%.

As to `COc1ccc(/C(C#N)=C/c2ccc(Br)cc2)cc1OC` [Compound 12, (Z)-3-(4-bromo-phenyl)-2-(3,4-dimethoxy-phenyl)-acrylonitrile], the EC50 in assay [8] is 0.28 µg/mL (≈ 0.813 µM); in assay [10], above 1 µg/mL.

Take `COc1ccc(/C(C#N)=C/c2cccc(F)c2)cc1OC` [Compound 13, (Z)-2-(3,4-dimethoxy-phenyl)-3-(3-fluoro-phenyl)-acrylonitrile]: in assay [8], the EC50 was found to be 0.013 µg/mL (≈ 0.0459 µM). Also, in [9] (Table 6), the “Survival days Mean ± S.D.” value was 20.6 ± 0.9 days and the T/C is recorded as 172%. Besides, the EC50 in assay [10] is above 1 µg/mL.

For the compound `CCCCOc1ccc(/C(C#N)=C/c2ccc(O)cc2)cc1` [Compound 14, (Z)-2-(4-butoxy-phenyl)-3-(4-hydroxy-phenyl)-acrylonitrile], the figures for the EC50 in assay [8] and in assay [10] were 0.047 µg/mL (≈ 0.16 µM) and above 1 µg/mL, respectively.

For `COc1cc(/C(C#N)=C/c2ccc(O)cc2)cc(OC)c1OC` [Compound 15, (Z)-3-(4-hydroxy-phenyl)-2-(3,4,5-trimethoxy-phenyl)-acrylonitrile], the values for the EC50 in assay [8] and in [10] were 0.023 µg/mL (≈ 0.0739 µM) and above 1 µg/mL, respectively.

For the compound `N#C/C(=C\c1ccc(O)cc1)c1ccc(O)cc1` [Compound 16, (Z)-2,3-bis-(4-hydroxy-phenyl)-acrylonitrile], the EC50 in assay [8] is 0.098 µg/mL (≈ 0.413 µM). Further, in assay [9] (Table 6), the “Survival days Mean ± S.D.” value is 19.2 ± 0.4 days and the T/C was 160%. For the same compound, the EC50 in assay [10] was above 1 µg/mL.

Turning to `COc1ccc(/C(C#N)=C/c2cccc(N)c2)cc1OC` [Compound 57, (Z)-3-(3-amino-phenyl)-2-(3,4-dimethoxy-phenyl)-acrylonitrile], the EC50 in [8] was 0.037 µg/mL (≈ 0.132 µM). Further, in assay [9] (Table 7), the “Survival days Mean ± S.D.” value was found to be 18.8 ± 0.8 days and the T/C came to 145%.

In the case of `COc1ccc(/C(C#N)=C/c2cccc(N)c2)cc1OC` [Compound 68, (Z)-3-(3-amino-phenyl)-2-(3,4-dimethoxy-phenyl)-acrylonitrile hydrochloride], the “Resistance overcoming effect EC50” value in assay [8] worked out at 0.048 µg/mL. The “Survival days Mean ± S.D.” value in [9] (Table 7, hydrochloride) is reported as 18.8 ± 2.9 days.
